Patent US20050234041A1, “Substituted 1-benzazepines and derivatives thereof” (priority 2001, published 2005)
Values after ≈ are worked out from the molar mass of the structure shown.

Columns and labels:
Campylobacter jejuni = assay: MIC, broth dilution method, Campylobacter jejuni; assay type: cell-based; settings: Campylobacter jejuni; Table IV; MIC, lowest concentration that inhibits bacterial growth; read-out: Antibacterial Activity (micrograms/ml) Campylobacter jejuni
Source text: (§1) Antibacterial activity can be determined by several standard methods well known by those skilled in the art, including disc diffusions methods, broth dilution minimal inhibitory concentration (MIC) methods, etc., including the detailed method outlined below and as defined by the National Committee of Clinical Laboratory Standards in the United States.
(§2) MIC, Broth Dilution Method
(§3) Cultures of bacteria are initially brought up from the freezer stocks onto chocolate agar plates by streaking a loop-full, then incubated for 18 hours at 35-37° C. in a 5% CO2 incubator.
(§4) Five to 10 colonies are picked from the chocolate agar plate for subculture to Brain-Heart Infusion (BHI) broth or Mueller Hinton broth or BHI containing 4% serum and incubated as described.
(§5) Evaluate the optical density of the organisms in the wells of a 96 well microtiter plate with and without the test compound. The optical density of the organisms in the presence of an active compound will be less than the optical density of the same organism untreated. The activity of the compounds is described as either negative or the lowest concentration inhibiting growth. The results are depicted in Table III, where +/− represents the least activity and ++++ represents the greatest activity. In Table IV, the results are depicted where MIC represents the lowest concentration of antibiotic that inhibits bacterial growth.

bacteria = assay: Antibacterial activity, broth dilution (Table III); assay type: cell-based; settings: graded activity, organism not given
Source text: as §1, §2, §3, §4, §5

Helicobacter pylori = assay: MIC, broth dilution method, Helicobacter pylori; assay type: cell-based; settings: Helicobacter pylori; Table IV; MIC, lowest concentration that inhibits bacterial growth; read-out: Antibacterial Activity (micrograms/ml) Helicobacter pylori
Source text: as §1, §2, §3, §4, §5

| Structure (SMILES) | MIC (Campylobacter jejuni) [µg/mL] | Antibacterial Activity (bacteria) | MIC (Helicobacter pylori) [µg/mL] | melting point |
| --- | --- | --- | --- | --- |
| CCN1C(=O)C(C(=O)O)CCc2cc(Br)c(OC)cc21 (racemic) [Example 17, 7-Bromo-3(R,S)-carboxyl-1-ethyl-8-methoxy-2,3,4,5tetrahydro-1H-1-benzazepine-2-one] | > 200 | +/− | 200 (≈ 584 µM) | 188 to 189 °C (dec.) |
| COc1cc2c(cc1Br)CCC(C(=O)OC(C)(C)C)C(=O)N2Cc1cccc(F)c1 (racemic) [Example 30, 7-Bromo-3(R,S)-tert-butoxycarbonyl-1-(3-fluorobenzyl)-8-methoxy-2,3,4,5-tetrahydro-1H-1-benzazepine-2-one] | > 200 | ++++ | 1.56 (≈ 3.26 µM) | 146 to 148 °C |
| COc1cc2c(cc1Br)CCC(C(=O)OC(C)(C)C)C(=O)N2 (racemic) [Example 32, 7-Bromo-3(R,S)-tert-butoxycarbonyl-8-methoxy-2,3,4,5-tetrahydro-1H-1-benzazepine-2-one] | > 200 | ++++ | 0.78 (≈ 2.11 µM) | 207 to 208 °C |
| O=C1CCCc2ccc(O)cc2N1 [Example 33, 8-Hydroxy-2,3,4,5-tetrahydro-1H-1-benzazepine-2-one] | > 200 | ++++ | 0.78 (≈ 4.4 µM) | 226 to 227 °C |
